This test deals with MV-4-11 cells. Kind of test: Gene expression microarray analysis (Affymetrix PrimeView) and GSEA. The format is cell-based, human. The following applies: ProbeSet 11732433_s_at; LIST B. The arrangement: RFU PODN (11730768_x_at) / Fold change /veh PODN (11730768_x_at) / RFU LINC00158 (11744669_a_at) / Fold change /veh LINC00158 (11744669_a_at) / RFU DUSP10 (11751237_a_at) / Fold change /veh DUSP10 (11751237_a_at) / RFU ID3 (11757404_x_at) / Fold change /veh ID3 (11757404_x_at) / RFU PLEKHG5 (11737974_s_at) / Fold change /veh PLEKHG5 (11737974_s_at) / RFU LRRC4B (11730491_at) / Fold change /veh LRRC4B (11730491_at) / RFU GIMAP4 (11747438_a_at) / Fold change /veh GIMAP4 (11747438_a_at) / RFU KRT8 (11758183_x_at) / Fold change /veh KRT8 (11758183_x_at) / RFU CNN1 (11734310_a_at) / Fold change /veh CNN1 (11734310_a_at) / RFU VPS37D (11726825_at) / Fold change /veh VPS37D (11726825_at) / RFU C10orf10 (11716522_x_at) / Fold change /veh C10orf10 (11716522_x_at) / RFU KIR2DL2 /// KIR2DL4 /// KIR2DL5A /// KIR2DL5B /// KIR2DS1 /// KIR2DS2 /// KIR2DS3 /// KIR2DS4 /// KIR3DL3 /// KIR3DL3 /// KIR3DS1 (11738374_at) / Fold change /veh KIR2DL2 /// KIR2DL4 /// KIR2DL5A /// KIR2DL5B /// KIR2DS1 /// KIR2DS2 /// KIR2DS3 /// KIR2DS4 /// KIR3DL3 /// KIR3DL3 /// KIR3DS1 (11738374_at) / RFU C1QL1 (11718748_at) / Fold change /veh C1QL1 (11718748_at) / RFU TMPRSS4 (11747572_a_at) / Fold change /veh TMPRSS4 (11747572_a_at) / RFU HAMP (11756126_x_at) / Fold change /veh HAMP (11756126_x_at) / RFU RNFT2 (11725882_a_at) / Fold change /veh RNFT2 (11725882_a_at) / RFU NR4A2 (11747474_a_at) / Fold change /veh NR4A2 (11747474_a_at) / RFU ABCC12 (11746883_a_at) / Fold change /veh ABCC12 (11746883_a_at) / RFU TMEM136 (11760407_x_at) / Fold change /veh TMEM136 (11760407_x_at) / RFU CLDN22 /// WWC2 (11732394_at) / Fold change /veh CLDN22 /// WWC2 (11732394_at) / RFU HLA-DPB1 (11760878_x_at) / Fold change /veh HLA-DPB1 (11760878_x_at) / RFU SPINT1 (11716480_a_at) / Fold change /veh SPINT1 (11716480_a_at) / RFU GAP43 (11754022_s_at) / Fold change /veh GAP43 (11754022_s_at) / RFU A4GNT (11735810_at) / Fold change /veh A4GNT (11735810_at) / RFU PRB3 (11715151_x_at) / Fold change /veh PRB3 (11715151_x_at) / RFU TUBB4B (11761932_at) / Fold change /veh TUBB4B (11761932_at) / RFU CAPN14 (11732068_a_at) / Fold change /veh CAPN14 (11732068_a_at) / RFU TMCC2 (11721928_a_at) / Fold change /veh TMCC2 (11721928_a_at) / RFU IRGQ (11745062_a_at) / Fold change /veh IRGQ (11745062_a_at) / RFU FAM174B (11720279_a_at) / Fold change /veh FAM174B (11720279_a_at) / RFU TMPRSS4 (11748680_a_at) / Fold change /veh TMPRSS4 (11748680_a_at) / RFU FAM212B (11763350_a_at) / Fold change /veh FAM212B (11763350_a_at) / RFU PLEKHG5 (11743358_a_at) / Fold change /veh PLEKHG5 (11743358_a_at) / RFU ZSCAN30 (11745921_a_at) / Fold change /veh ZSCAN30 (11745921_a_at) / RFU CMKLR1 (11741424_a_at) / Fold change /veh CMKLR1 (11741424_a_at) / RFU LOC101060620 /// MAPK8IP1 (11723275_at) / Fold change /veh LOC101060620 /// MAPK8IP1 (11723275_at) / RFU SPTSSB (11747773_x_at) / Fold change /veh SPTSSB (11747773_x_at) / RFU PRSS12 (11739890_at) / Fold change /veh PRSS12 (11739890_at) / RFU BIN1 (11741810_x_at) / Fold change /veh BIN1 (11741810_x_at) / RFU WNT11 (11732464_a_at) / Fold change /veh WNT11 (11732464_a_at) / RFU C10orf10 (11716521_a_at) / Fold change /veh C10orf10 (11716521_a_at) / RFU C5orf56 (11738089_at) / Fold change /veh C5orf56 (11738089_at) / RFU CYB561 (11721691_x_at) / Fold change /veh CYB561 (11721691_x_at) / RFU ANKRD19P (11752326_a_at) / Fold change /veh ANKRD19P (11752326_a_at) / RFU OR2T12 /// OR2T33 /// OR2T8 (11738714_s_at) / Fold change /veh OR2T12 /// OR2T33 /// OR2T8 (11738714_s_at) / RFU VCAN (11748164_a_at) / Fold change /veh VCAN (11748164_a_at) / RFU JSRP1 (11732532_at) / Fold change /veh JSRP1 (11732532_at) / RFU KRTAP10-11 (11738290_x_at) / Fold change /veh KRTAP10-11 (11738290_x_at) / RFU MYO3A (11730013_a_at) / Fold change /veh MYO3A (11730013_a_at) / RFU EBF3 (11725865_a_at) / Fold change /veh EBF3 (11725865_a_at) / RFU CAMK2N1 (11719241_x_at) / Fold change /veh CAMK2N1 (11719241_x_at) / RFU C5orf56 (11738088_a_at) / Fold change /veh C5orf56 (11738088_a_at) / RFU OLFML3 (11715873_a_at) / Fold change /veh OLFML3 (11715873_a_at) / RFU LOC100653217 /// NTM (11731650_a_at) / Fold change /veh LOC100653217 /// NTM (11731650_a_at) / RFU MAPK11 (11762145_a_at) / Fold change /veh MAPK11 (11762145_a_at) / RFU FIZ1 (11724087_x_at) / Fold change /veh FIZ1 (11724087_x_at) / RFU OASL (11726364_x_at) / Fold change /veh OASL (11726364_x_at) / RFU SOX15 (11748057_x_at) / Fold change /veh SOX15 (11748057_x_at) / RFU CD79A (11719716_a_at) / Fold change /veh CD79A (11719716_a_at) / RFU HIST1H1D (11736915_at) / Fold change /veh HIST1H1D (11736915_at) / RFU CASKIN2 (11723855_a_at) / Fold change /veh CASKIN2 (11723855_a_at) / RFU LOC730098 (11760151_x_at) / Fold change /veh LOC730098 (11760151_x_at) / RFU OR4N2 (11742367_at) / Fold change /veh OR4N2 (11742367_at) / RFU PRRT2 (11749266_a_at) / Fold change /veh PRRT2 (11749266_a_at) / RFU SNX32 (11753110_a_at) / Fold change /veh SNX32 (11753110_a_at) / RFU CDHR5 (11726645_a_at) / Fold change /veh CDHR5 (11726645_a_at) / RFU RCAN1 (11760418_a_at) / Fold change /veh RCAN1 (11760418_a_at) / RFU FAM167A (11723789_a_at) / Fold change /veh FAM167A (11723789_a_at) / RFU FAM26E (11764081_at) / Fold change /veh FAM26E (11764081_at) / RFU ISYNA1 (11749810_s_at) / Fold change /veh ISYNA1 (11749810_s_at) / RFU ACY1 (11761880_at) / Fold change /veh ACY1 (11761880_at) / RFU 11764098_at / Fold change /veh 11764098_at / RFU SAMD14 (11745864_x_at) / Fold change /veh SAMD14 (11745864_x_at) / RFU NPB (11741838_a_at) / Fold change /veh NPB (11741838_a_at) / RFU TMPRSS6 (11731388_a_at) / Fold change /veh TMPRSS6 (11731388_a_at) / RFU KRTAP10-2 (11738614_at) / Fold change /veh KRTAP10-2 (11738614_at) / RFU ARHGAP8 /// PRR5-ARHGAP8 (11727945_x_at) / Fold change /veh ARHGAP8 /// PRR5-ARHGAP8 (11727945_x_at) / RFU KRTAP5-7 /// NADSYN1 (11734609_at) / Fold change /veh KRTAP5-7 /// NADSYN1 (11734609_at) / RFU RASL12 (11751679_a_at) / Fold change /veh RASL12 (11751679_a_at) / RFU CDKN2B (11736163_a_at) / Fold change /veh CDKN2B (11736163_a_at) / RFU PRF1 (11729649_at) / Fold change /veh PRF1 (11729649_at) / RFU, ZNF638 /// ZNF638-IT1 / Fold change vs veh, ZNF638 /// ZNF638-IT1 / RFU, PANK3 / Fold change vs veh, PANK3 / RFU, SH3YL1 / Fold change vs veh, SH3YL1 / RFU, ZEB2 / Fold change vs veh, ZEB2 / RFU, NRIP1 / Fold change vs veh, NRIP1 / RFU, PTTG1IP / Fold change vs veh, PTTG1IP / RFU, CAPN2 / Fold change vs veh, CAPN2 / RFU, MED14 / Fold change vs veh, MED14 / RFU, SNORA58 / Fold change vs veh, SNORA58 / RFU, C1orf63 / Fold change vs veh, C1orf63 / RFU, LRRFIP1 / Fold change vs veh, LRRFIP1 / RFU, NDUFAF7 / Fold change vs veh, NDUFAF7 / RFU, SLC12A2 / Fold change vs veh, SLC12A2 / RFU, IBTK / Fold change vs veh, IBTK / RFU, ESF1 / Fold change vs veh, ESF1 / Fold change vs veh, TMEM50B / RFU, TAOK1 / Fold change vs veh, TAOK1 / RFU, ACBD3 / Fold change vs veh, ACBD3 / RFU, TMA16 / Fold change vs veh, TMA16 / RFU, RWDD3 / Fold change vs veh, RWDD3 / RFU, BCAT1 / Fold change vs veh, BCAT1 / RFU, EDEM3 / Fold change vs veh, EDEM3 / RFU, TMEM33 / Fold change vs veh, TMEM33 / RFU, WDR75 / Fold change vs veh, WDR75 / RFU, AHCTF1 / Fold change vs veh, AHCTF1 / RFU, TFRC / Fold change vs veh, TFRC / RFU, ZDHHC17 / Fold change vs veh, ZDHHC17 / RFU, NOM1 / Fold change vs veh, NOM1 / RFU, ARL8B / Fold change vs veh, ARL8B / RFU, ZBTB11 / Fold change vs veh, ZBTB11 / RFU, TAMM41 / Fold change vs veh, TAMM41 / RFU, KIAA1704 /// LOC100996395 / Fold change vs veh, KIAA1704 /// LOC100996395 / RFU, ING1 / Fold change vs veh, ING1 / RFU, TRMT61B / Fold change vs veh, TRMT61B / RFU, FUBP3 / Fold change vs veh, FUBP3 / RFU, TP53 / Fold change vs veh, TP53 / RFU, TNKS2 / Fold change vs veh, TNKS2 / RFU, ZFP14 / Fold change vs veh, ZFP14 / RFU, ACTR2 / Fold change vs veh, ACTR2 / RFU, PPP3R1 / Fold change vs veh, PPP3R1 / RFU, PIK3R1 / Fold change vs veh, PIK3R1 / RFU, HNRNPA1 / Fold change vs veh, HNRNPA1 / RFU, RNF170 / Fold change vs veh, RNF170 / RFU, ZNF28 / Fold change vs veh, ZNF28 / RFU, RNGTT / Fold change vs veh, RNGTT / RFU, OGT / Fold change vs veh, OGT / RFU, BRD1 / Fold change vs veh, BRD1 / RFU, MARS / Fold change vs veh, MARS / RFU, ZNF655 / Fold change vs veh, ZNF655 / RFU, FAHD1 / Fold change vs veh, FAHD1 / RFU, BDP1 / Fold change vs veh, BDP1 / RFU, LRRCC1 / Fold change vs veh, LRRCC1 / RFU, ARID1A / Fold change vs veh, ARID1A / RFU, ZNF146 / Fold change vs veh, ZNF146 / RFU, ZNF330 / Fold change vs veh, ZNF330 / RFU, GPN3 / Fold change vs veh, GPN3 / RFU, C9orf123 / Fold change vs veh, C9orf123 / RFU, N4BP2L2 / Fold change vs veh, N4BP2L2 / RFU, ARFIP1 / Fold change vs veh, ARFIP1 / RFU, FAM179B / Fold change vs veh, FAM179B / RFU, BCL10 / Fold change vs veh, BCL10 / RFU, UHRF1BP1L / Fold change vs veh, UHRF1BP1L / RFU, BET1 / Fold change vs veh, BET1 / RFU, CNOT2 / Fold change vs veh, CNOT2 / RFU, ZNF268 / Fold change vs veh, ZNF268 / Fold change vs veh, ZNF507 / RFU, DGCR2 / Fold change vs veh, DGCR2 / RFU, WDSUB1 / Fold change vs veh, WDSUB1 / Fold change vs veh, HSP90B1 /// MIR3652 / RFU, ADSS / Fold change vs veh, ADSS / RFU, GK / Fold change vs veh, GK / RFU, ZNF148 / Fold change vs veh, ZNF148 / RFU, TAF9 / Fold change vs veh, TAF9 / RFU, SLC1A5 / Fold change vs veh, SLC1A5 / RFU, SLMO2 / Fold change vs veh, SLMO2 / RFU, ABCC4 / Fold change vs veh, ABCC4 / RFU, LOC101060439 /// RAP1B / Fold change vs veh, LOC101060439 /// RAP1B / RFU, RFX7 / Fold change vs veh, RFX7 / RFU, GTPBP10 / Fold change vs veh, GTPBP10 / RFU, CNEP1R1 / Fold change vs veh, CNEP1R1 / RFU, BIVM-ERCC5 /// ERCC5 / Fold change vs veh, BIVM-ERCC5 /// ERCC5 / RFU, ILF3 / Fold change vs veh, ILF3 / RFU 11762660_at / Fold change /veh 11762660_at / RFU VCAN (11757783_s_at) / Fold change /veh VCAN (11757783_s_at) / RFU DDX43 (11728927_at) / Fold change /veh DDX43 (11728927_at) / RFU KRT8 (11758188_x_at) / Fold change /veh KRT8 (11758188_x_at) / RFU NKD1 (11759106_at) / Fold change /veh NKD1 (11759106_at) / RFU SRD5A1 (11742802_a_at) / Fold change /veh SRD5A1 (11742802_a_at) / RFU TPSAB1 /// TPSB2 (11721975_s_at) / Fold change /veh TPSAB1 /// TPSB2 (11721975_s_at) / RFU GSTM3 (11746129_a_at) / Fold change /veh GSTM3 (11746129_a_at) / RFU IL23R (11737362_x_at) / Fold change /veh IL23R (11737362_x_at) / RFU TMEM51 (11727254_a_at) / Fold change /veh TMEM51 (11727254_a_at) / RFU PIWIL2 (11732686_x_at) / Fold change /veh PIWIL2 (11732686_x_at) / RFU ORM1 (11744905_x_at) / Fold change /veh ORM1 (11744905_x_at) / RFU CCDC152 (11743942_at) / Fold change /veh CCDC152 (11743942_at) / RFU ECM1 (11717891_a_at) / Fold change /veh ECM1 (11717891_a_at) / RFU IL23R (11748794_a_at) / Fold change /veh IL23R (11748794_a_at) / RFU TNFAIP8L3 (11732012_x_at) / Fold change /veh TNFAIP8L3 (11732012_x_at) / RFU MBOAT4 (11741988_at) / Fold change /veh MBOAT4 (11741988_at) / RFU 11764193_at / Fold change /veh 11764193_at / RFU TMEM53 (11763286_at) / Fold change /veh TMEM53 (11763286_at) / RFU MAGEB2 (11727129_at) / Fold change /veh MAGEB2 (11727129_at) / RFU TMEM200A (11744735_a_at) / Fold change /veh TMEM200A (11744735_a_at) / RFU CCDC152 (11751479_a_at) / Fold change /veh CCDC152 (11751479_a_at) / RFU FAM211A (11726209_a_at) / Fold change /veh FAM211A (11726209_a_at) / RFU RGS16 (11746705_a_at) / Fold change /veh RGS16 (11746705_a_at) / RFU VCAN (11755009_s_at) / Fold change /veh VCAN (11755009_s_at) / RFU RHOB (11743442_s_at) / Fold change /veh RHOB (11743442_s_at) / RFU RGS16 (11720943_a_at) / Fold change /veh RGS16 (11720943_a_at) / RFU RGS16 (11720944_at) / Fold change /veh RGS16 (11720944_at) / RFU, VPS4B / Fold change vs veh, VPS4B / RFU, CREB1 / Fold change vs veh, CREB1 / RFU, DNAJC13 / Fold change vs veh, DNAJC13 / RFU, GNAQ / Fold change vs veh, GNAQ / RFU, CDK5R1 / Fold change vs veh, CDK5R1 / RFU, ZRANB3 / Fold change vs veh, ZRANB3 / RFU, CUL4A / Fold change vs veh, CUL4A / RFU, CCNY / Fold change vs veh, CCNY / RFU, UFL1 / Fold change vs veh, UFL1 / RFU, COG3 / Fold change vs veh, COG3 / RFU, DIAPH2 / Fold change vs veh, DIAPH2 / RFU, SKA2 / Fold change vs veh, SKA2 / RFU, AFF3 / Fold change vs veh, AFF3 / RFU, LMF1 / Fold change vs veh, LMF1 / RFU, IPO11 / Fold change vs veh, IPO11 / RFU, DFFB / Fold change vs veh, DFFB / RFU, FOXP1 / Fold change vs veh, FOXP1 / RFU, CARD8 / Fold change vs veh, CARD8 / RFU, STRN3 / Fold change vs veh, STRN3 / RFU, ADK / Fold change vs veh, ADK / RFU, RASSF2 / Fold change vs veh, RASSF2 / RFU, WIPF1 / Fold change vs veh, WIPF1 / RFU, LARP1B / Fold change vs veh, LARP1B / RFU, RASA1 / Fold change vs veh, RASA1 / RFU, RB1 / Fold change vs veh, RB1 / RFU, PPFIA1 / Fold change vs veh, PPFIA1 / RFU, MAT2A / Fold change vs veh, MAT2A / RFU, CCT5 / Fold change vs veh, CCT5 / RFU, WDR92 / Fold change vs veh, WDR92 / RFU, CUX1 / Fold change vs veh, CUX1 / RFU, TTC7A / Fold change vs veh, TTC7A / RFU, TMEM135 / Fold change vs veh, TMEM135 / RFU, DEPTOR / Fold change vs veh, DEPTOR / RFU, CPM / Fold change vs veh, CPM / RFU, DNAJB6 / Fold change vs veh, DNAJB6 / RFU, CACNA2D3 / Fold change vs veh, CACNA2D3 / RFU, DTX4 / Fold change vs veh, DTX4 / RFU, TFCP2 / Fold change vs veh, TFCP2 / RFU, GMCL1 /// GMCL1P1 / Fold change vs veh, GMCL1 /// GMCL1P1 / RFU, AEBP2 / Fold change vs veh, AEBP2 / RFU, SNHG1 /// SNORD22 /// SNORD25 /// SNORD26 /// SNORD27 /// SNORD28 /// SNORD29 /// SNORD31 / Fold change vs veh, SNHG1 /// SNORD22 /// SNORD25 /// SNORD26 /// SNORD27 /// SNORD28 /// SNORD29 /// SNORD31 / Fold change (Aza/veh), C12orf56 (ProbeSet 11735607_a_at) / Fold change (ACY-1035/veh), C12orf56 (ProbeSet 11735607_a_at) / Fold change (Aza/veh), FGFR1OP (ProbeSet 11751329_s_at) / Fold change (ACY-1035/veh), FGFR1OP (ProbeSet 11751329_s_at) / Fold change (Aza/veh), VPS36 (ProbeSet 11739960_a_at) / Fold change (ACY-1035/veh), VPS36 (ProbeSet 11739960_a_at) / RFU SYPL1 (11715823_x_at) / Fold change /veh SYPL1 (11715823_x_at) / RFU IGFBP7 (11715501_s_at) / Fold change /veh IGFBP7 (11715501_s_at) / RFU REEP3 (11722064_at) / Fold change /veh REEP3 (11722064_at) / RFU IGLL1 (11728026_x_at) / Fold change /veh IGLL1 (11728026_x_at): dose or concentration left out as unconfirmed.

For `Nc1ncn([C@@H]2O[C@H](CO)[C@@H](O)[C@H]2O)c(=O)n1` [azacitidine], the “RFU, GK” value was determined as 260.90 RFU.

The values are drawn from article PMC5218480 (PLoS ONE, 2017).
